Molecular target: PI3Kβ (Homo sapiens (Human), UniProt P42338)
Assay: PI3K isoform TR-FRET enzymatic assay (PI3Kβ)
Type: biochemical
Conditions: 2× Km ATP, 30 minutes at 25° C.
Procedure, shortened: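 Heterodimeric recombinant PI3Kβ was incubated with compound 30 minutes at 25° C. Product was detected by TR-FRET competition with 10 nM labeled PIP3 for 35 nM Eu-GRP-1 PH domain after EDTA stop. Data were normalized to 1 μM wortmannin and DMSO, and IC50 was taken from a four-parameter fit.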

Chain of PI3Kβ (P42338 whole entry, canonical isoform): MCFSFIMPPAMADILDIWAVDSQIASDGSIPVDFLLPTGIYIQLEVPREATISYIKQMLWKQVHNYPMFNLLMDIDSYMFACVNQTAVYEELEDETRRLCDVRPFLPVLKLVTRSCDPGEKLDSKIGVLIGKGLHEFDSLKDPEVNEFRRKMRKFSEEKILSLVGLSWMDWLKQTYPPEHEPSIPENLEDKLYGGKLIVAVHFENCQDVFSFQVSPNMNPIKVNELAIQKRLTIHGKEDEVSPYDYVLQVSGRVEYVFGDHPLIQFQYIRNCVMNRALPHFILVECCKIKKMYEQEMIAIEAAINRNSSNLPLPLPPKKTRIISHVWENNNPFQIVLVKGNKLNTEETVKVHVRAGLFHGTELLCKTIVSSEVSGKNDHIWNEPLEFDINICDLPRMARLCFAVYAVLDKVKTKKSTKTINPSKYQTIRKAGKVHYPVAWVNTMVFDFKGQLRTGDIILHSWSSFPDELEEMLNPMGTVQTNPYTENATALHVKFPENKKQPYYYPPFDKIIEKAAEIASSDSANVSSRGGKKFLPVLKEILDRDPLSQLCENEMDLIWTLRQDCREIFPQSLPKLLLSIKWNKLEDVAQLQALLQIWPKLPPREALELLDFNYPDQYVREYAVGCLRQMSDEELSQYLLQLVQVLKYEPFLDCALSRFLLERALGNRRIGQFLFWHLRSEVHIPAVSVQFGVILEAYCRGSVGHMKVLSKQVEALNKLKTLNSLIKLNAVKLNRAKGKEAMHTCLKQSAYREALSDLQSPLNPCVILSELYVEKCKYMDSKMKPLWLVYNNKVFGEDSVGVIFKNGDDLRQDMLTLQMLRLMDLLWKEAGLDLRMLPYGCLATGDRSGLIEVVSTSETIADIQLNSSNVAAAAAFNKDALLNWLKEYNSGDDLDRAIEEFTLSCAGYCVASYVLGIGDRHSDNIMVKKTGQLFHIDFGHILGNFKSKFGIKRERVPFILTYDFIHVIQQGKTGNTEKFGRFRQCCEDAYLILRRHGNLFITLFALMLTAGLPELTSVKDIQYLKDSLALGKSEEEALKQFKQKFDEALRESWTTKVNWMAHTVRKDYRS
Chain of PI3Kβ (P27986 whole entry partner, canonical isoform): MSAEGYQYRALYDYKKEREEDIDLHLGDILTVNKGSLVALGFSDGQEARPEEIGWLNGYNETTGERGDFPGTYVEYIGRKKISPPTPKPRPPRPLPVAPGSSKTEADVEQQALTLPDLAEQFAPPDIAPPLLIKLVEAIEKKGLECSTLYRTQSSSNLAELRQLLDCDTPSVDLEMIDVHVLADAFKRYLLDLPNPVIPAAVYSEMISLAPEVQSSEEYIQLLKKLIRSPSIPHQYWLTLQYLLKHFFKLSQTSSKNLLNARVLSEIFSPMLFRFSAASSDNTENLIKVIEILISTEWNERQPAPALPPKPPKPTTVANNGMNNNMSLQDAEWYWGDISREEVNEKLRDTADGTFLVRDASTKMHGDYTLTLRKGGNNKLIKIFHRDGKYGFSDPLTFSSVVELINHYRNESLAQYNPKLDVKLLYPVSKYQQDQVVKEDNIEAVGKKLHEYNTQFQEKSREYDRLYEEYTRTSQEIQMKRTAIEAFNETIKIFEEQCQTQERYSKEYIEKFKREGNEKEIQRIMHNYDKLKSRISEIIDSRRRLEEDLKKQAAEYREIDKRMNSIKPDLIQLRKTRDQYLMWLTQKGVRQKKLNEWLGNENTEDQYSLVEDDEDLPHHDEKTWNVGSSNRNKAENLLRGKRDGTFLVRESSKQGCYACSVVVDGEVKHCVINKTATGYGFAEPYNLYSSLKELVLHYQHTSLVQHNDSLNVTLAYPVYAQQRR

| IC50 [nM] | SMILES |
| --- | --- |
| 8 | Cc1nc2c(-c3ncco3)cc(N3CCOCC3)cc2n1-c1ccnc2c(Cl)cccc12 [Example 204, 4-[3-(8-chloroquinolin-4-yl)-2-methyl-7-(1,3-oxazol-2-yl)benzimidazol-5-yl]morpholine] |
| 15 | CCc1nc2c(-c3cnc[nH]3)cc(N3CCOCC3)cc2n1-c1ccnc2c(F)cccc12 [Example 209, 4-[2-ethyl-3-(8-fluoroquinolin-4-yl)-7-(1H-imidazol-5-yl)benzimidazol-5-yl]morpholine] |
| 16 | CCc1nc2c(-c3ncco3)cc(N3CCOCC3)cc2n1-c1ccnc2c(F)cccc12 [Example 213, 4-[2-ethyl-3-(8-fluoroquinolin-4-yl)-7-(1,3-oxazol-2-yl)benzimidazol-5-yl]morpholine] |
| 56 | Fc1cccc2c(-n3c(C4CC4)nc4c(-c5ncco5)cc(N5CCOCC5)cc43)ccnc12 [Example 214, 4-[2-cyclopropyl-3-(8-fluoroquinolin-4-yl)-7-(1,3-oxazol-2-yl)benzimidazol-5-yl]morpholine] |
| 9 | CCc1nc2c(-c3ncco3)cc(N3CCOCC3)cc2n1-c1ccnc2c(F)ccc(F)c12 [Example 217, 4-[3-(5,8-difluoroquinolin-4-yl)-2-ethyl-7-(1,3-oxazol-2-yl)benzimidazol-5-yl]morpholine] |
| 11 | CCc1nc2c(-c3ncco3)cc(N3CCOCC3)cc2n1-c1ccnc2c(Cl)c(F)ccc12 [Example 218, 4-[3-(8-chloro-7-fluoroquinolin-4-yl)-2-ethyl-7-(1,3-oxazol-2-yl)benzimidazol-5-yl]morpholine] |
| 8 | CC(C)Cc1nc2c(-c3ncco3)cc(N3CCOCC3)cc2n1-c1ccnc2c(F)ccc(F)c12 [Example 219, 4-[3-(5,8-difluoroquinolin-4-yl)-2-(2-methylpropyl)-7-(1,3-oxazol-2-yl)benzimidazol-5-yl]morpholine] |
| 7 | Clc1cccc2c(-n3c(CC4CC4)nc4c(-c5ncco5)cc(N5CCOCC5)cc43)ccnc12 [Example 220, 4-[3-(8-chloroquinolin-4-yl)-2-(cyclopropylmethyl)-7-(1,3-oxazol-2-yl)benzimidazol-5-yl]morpholine] |
| 11 | Fc1ccc(F)c2c(-n3c(CC4CC4)nc4c(-c5ncco5)cc(N5CCOCC5)cc43)ccnc12 [Example 221, 4-[2-(cyclopropylmethyl)-3-(5,8-difluoroquinolin-4-yl)-7-(1,3-oxazol-2-yl)benzimidazol-5-yl]morpholine] |
| 9 | CCCc1nc2c(-c3ncco3)cc(N3CCOCC3)cc2n1-c1ccnc2c(F)cccc12 [Example 223, 4-[3-(8-fluoroquinolin4-yl)-7-(1,3-oxazol-2-yl)-2-propylbenzimidazol-5-yl]morpholine] |
| 18 | Fc1cccc2c(-n3c(CC4CC4)nc4c(-c5ncco5)cc(N5CCOCC5)cc43)ccnc12 [Example 225, 4-[2-(cyclopropylmethyl)-3-(8-fluoroquinolin-4-yl)-7-(1,3-oxazol-2-yl)benzimidazol-5-yl]morpholine] |
| 5 | CCc1nc2c(-c3ncco3)cc(N3CCOCC3)cc2n1-c1ccnc2c(Cl)cccc12 [Example 226, 4-[3-(8-chloroquinolin4-yl)-2-ethyl-7-(1,3-oxazol-2-yl)benzimidazol-5-yl]morpholine] |
| 10 | CCCc1nc2c(-c3ncco3)cc(N3CCOCC3)cc2n1-c1ccnc2c(Cl)cccc12 [Example 227, 4-[3-(8-chloroquinolin-4-yl)-7-(1,3-oxazol-2-yl)-2-propylbenzimidazol-5-yl]morpholine] |
| 10 | Clc1cccc2c(-n3c(C4CC4)nc4c(-c5ncco5)cc(N5CCOCC5)cc43)ccnc12 [Example 228, 4-[3-(8-chloroquinolin-4-yl)-2-cyclopropyl-7-(1,3-oxazol-2-yl)benzimidazol-5-yl]morpholine] |
| 5 | Cc1nc2c(-c3ncco3)cc(N3CCOCC3)cc2n1-c1ccnc2c(F)ccc(F)c12 [Example 229, 4-[3-(5,8-difluoroquinolin-4-yl)-2-methyl-7-(1,3-oxazol-2-yl)benzimidazol-5-yl]morpholine] |
| 7 | CCCc1nc2c(-c3ncco3)cc(N3CCOCC3)cc2n1-c1ccnc2c(F)ccc(F)c12 [Example 230, 4-(1-(5,8-difluoroquinolin-4-yl)-4-(oxazol-2-yl)-2-propyl-1H-benzo[d]imidazol-6-yl)morpholine] |
| 16 | Fc1ccc(F)c2c(-n3c(C4CC4)nc4c(-c5ncco5)cc(N5CCOCC5)cc43)ccnc12 [Example 231, 4-[2-cyclopropyl-3-(5,8-difluoroquinolin-4-yl)-7-(1,3-oxazol-2-yl)benzimidazol-5-yl]morpholine] |

The next lines start with the compound.

| SMILES | IC50 [nM] |
| --- | --- |
| Cc1nc2c(-c3cncn3C)cc(N3CCOCC3)cc2n1-c1ccnc2c(Cl)cccc12 [Example 202, 4-[3-(8-chloroquinolin-4-yl)-2-methyl-7-(3-methylimidazol-4-yl)benzimidazol-5-yl]morpholine] | > 10000 |
| Cc1nc2c(-c3cn(C)cn3)cc(N3CCOCC3)cc2n1-c1ccnc2c(Cl)cccc12 [Example 203, 4-[3-(8-chloroquinolin-4-yl)-2-methyl-7-(1-methylimidazol-4-yl)benzimidazol-5-yl]morpholine] | 120 |
| Cc1csc(-c2cc(N3CCOCC3)cc3c2nc(C)n3-c2ccnc3c(Cl)cccc23)n1 [Example 205, 4-[3-(8-chloroquinolin-4-yl)-2-methyl-7-(4-methyl-1,3-thiazol-2-yl)benzimidazol-5-yl]morpholine] | 12 |
| CCc1nc2c(-c3cnc(C)[nH]3)cc(N3CCOCC3)cc2n1-c1ccnc2c(F)ccc(F)c12 [Example 206, 4-[3-(5,8-difluoroquinolin-4-yl)-2-ethyl-7-(2-methyl-1H-imidazol-5-yl)benzimidazol-5-yl]morpholine] | 40 |
| CCCc1nc2c(-c3cnc[nH]3)cc(N3CCOCC3)cc2n1-c1ccnc2c(Cl)cccc12 [Example 207, 4-[3-(8-chloroquinolin-4-yl)-7-(1H-imidazol-5-yl)-2-propylbenzimidazol-5-yl]morpholine] | 13 |
| Cc1nc2c(-c3cnc[nH]3)cc(N3CCOCC3)cc2n1-c1ccnc2c(F)cccc12 [Example 208, 4-[3-(8-fluoroquinolin-4-yl)-7-(1H-imidazol-5-yl)-2-methylbenzimidazol-5-yl]morpholine] | 14 |
| Cc1cc(-n2c(C)nc3c(-c4cnc[nH]4)cc(N4CCOCC4)cc32)c2cccc(F)c2n1 [Example 210, 4-[3-(8-fluoro-2-methylquinolin-4-yl)-7-(1H-imidazol-5-yl)-2-methylbenzimidazol-5-yl]morpholine] | 27 |
| CCc1nc2c(-c3cnc[nH]3)cc(N3CCOCC3)cc2n1-c1cc(C)nc2c(F)cccc12 [Example 211, 4-[2-ethyl-3-(8-fluoro-2-methylquinolin-4-yl)-7-(1H-imidazol-5-yl)benzimidazol-5-yl]morpholine] | 22 |
| CCCc1nc2c(-c3cnc(C)[nH]3)cc(N3CCOCC3)cc2n1-c1ccnc2c(Cl)cccc12 [Example 212, 4-[3-(8-chloroquinolin-4-yl)-7-(2-methyl-1H-imidazol-5-yl)-2-propylbenzimidazol-5-yl]morpholine] | 34 |
| Cc1cnc(-c2cc(N3CCOCC3)cc3c2nc(C)n3-c2ccnc3c(Cl)cccc23)s1 [Example 215, 4-[3-(8-chloroquinolin-4-yl)-2-methyl-7-(5-methyl-1,3-thiazol-2-yl)benzimidazol-5-yl]morpholine] | 630 |
| Cc1nc(-c2cc(N3CCOCC3)cc3c2nc(C)n3-c2ccnc3c(Cl)cccc23)sc1C [Example 216, 4-[3-(8-chloroquinolin4-yl)-7-(4,5-dimethyl-1,3-thiazol-2-yl)-2-methylbenzimidazol-5-yl]morpholine] | 380 |
| CCCc1nc2c(-c3ncco3)cc(N3CCOCC3)cc2n1-c1ccnc2c(Cl)cc(F)cc12 [Example 222, 4-[3-(8-chloro-6-fluoroquinolin-4-yl)-7-(1,3-oxazol-2-yl)-2-propylbenzimidazol-5-yl]morpholine] | 12 |
| Clc1cccc2c(-n3cnc4c(-c5ncco5)cc(N5CCOCC5)cc43)ccnc12 [Example 224, 4-[3-(8-chloroquinolin-4-yl)-7-(1,3-oxazol-2-yl)benzimidazol-5-yl]morpholine] | 3 |
| CCc1nc2c(-c3nc(C)cs3)cc(N3CCOCC3)cc2n1-c1ccnc2c(F)cccc12 [Example 232, 4-[2-ethyl-3-(8-fluoroquinolin-4-yl)-7-(4-methyl-1,3-thiazol-2-yl)benzimidazol-5-yl]morpholine] | 56 |
| Cc1csc(-c2cc(N3CCOCC3)cc3c2nc(C)n3-c2ccnc3c(F)ccc(F)c23)n1 [Example 233, 4-[3-(5,8-difluoroquinolin-4-yl)-2-methyl-7-(4-methyl-1,3-thiazol-2-yl)benzimidazol-5-yl]morpholine] | 8 |
| Cc1csc(-c2cc(N3CCOCC3)cc3c2nc(C2CC2)n3-c2ccnc3c(Cl)cccc23)n1 [Example 234, 4-[3-(8-chloroquinolin-4-yl)-2-cyclopropyl-7-(4-methyl-1,3-thiazol-2-yl)benzimidazol-5-yl]morpholine] | 100 |
| CCCc1nc2c(-c3nc(C)cs3)cc(N3CCOCC3)cc2n1-c1ccnc2c(F)ccc(F)c12 [Example 235, 4-[3-(5,8-difluoroquinolin-4-yl)-7-(4-methyl-1,3-thiazol-2-yl)-2-propylbenzimidazol-5-yl]morpholine] | 17 |
| Fc1ccc(F)c2c(-n3cnc4c(-c5ncco5)cc(N5CCOCC5)cc43)ccnc12 [Example 236, 4-[3-(5,8-difluoroquinolin-4-yl)-7-(1,3-oxazol-2-yl)benzimidazol-5-yl]morpholine] | 5 |
| Cc1csc(-c2cc(N3CCOCC3)cc3c2nc(C2CC2)n3-c2ccnc3c(F)ccc(F)c23)n1 [Example 237, 4-[2-cyclopropyl-3-(5,8-difluoroquinolin-4-yl)-7-(4-methyl-1,3-thiazol-2-yl)benzimidazol-5-yl]morpholine] | 50 |

From US10214519B2, “Phosphatidylinositol 3-kinase inhibitors” (Gilead Sciences, Inc., priority 2016, dated 2019)
